What was measured:
Assay in all cases: DSF 100 kinase selectivity screen;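 further: compound tested at 20 µM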
Format in all cases: binding
[1] = biological target: T1, ~100 representative kinases (Homo sapiens, UniProt O14936); conditions: Protein CASK; average of three replicates
T1 construct: Recombinant protein kinase domains with a concentration of 2 μM
T1 sequence (O14936 1-926): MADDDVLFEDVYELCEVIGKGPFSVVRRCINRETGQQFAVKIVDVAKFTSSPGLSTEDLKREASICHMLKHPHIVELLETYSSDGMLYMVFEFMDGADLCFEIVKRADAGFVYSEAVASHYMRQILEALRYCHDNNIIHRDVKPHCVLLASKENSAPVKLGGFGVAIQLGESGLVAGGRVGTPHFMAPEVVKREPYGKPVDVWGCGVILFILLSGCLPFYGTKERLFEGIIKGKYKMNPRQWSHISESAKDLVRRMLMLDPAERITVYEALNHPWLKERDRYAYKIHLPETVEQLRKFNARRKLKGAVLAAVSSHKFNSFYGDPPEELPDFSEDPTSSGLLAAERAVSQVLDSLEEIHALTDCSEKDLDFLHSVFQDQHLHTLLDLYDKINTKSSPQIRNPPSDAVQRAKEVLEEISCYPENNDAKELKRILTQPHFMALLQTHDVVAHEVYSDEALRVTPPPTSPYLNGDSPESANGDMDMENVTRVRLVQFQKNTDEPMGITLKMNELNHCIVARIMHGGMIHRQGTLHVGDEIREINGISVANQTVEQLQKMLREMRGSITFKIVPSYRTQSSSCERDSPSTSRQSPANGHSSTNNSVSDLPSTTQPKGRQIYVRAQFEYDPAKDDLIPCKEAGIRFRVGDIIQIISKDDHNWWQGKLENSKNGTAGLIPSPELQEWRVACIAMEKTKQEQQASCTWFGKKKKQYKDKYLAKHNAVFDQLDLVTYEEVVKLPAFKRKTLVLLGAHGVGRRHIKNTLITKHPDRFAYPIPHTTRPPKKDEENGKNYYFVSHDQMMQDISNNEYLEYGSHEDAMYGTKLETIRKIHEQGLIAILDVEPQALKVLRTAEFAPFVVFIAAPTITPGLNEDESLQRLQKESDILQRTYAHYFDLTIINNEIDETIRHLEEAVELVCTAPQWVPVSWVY
Outline: (§1)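 Each kinase domain, at 2 μM, is mixed with 20 μM test compound and SYPRO Orange in Hepes (20 mM, pH 7.5) with 500 mM NaCl. Temperature is then raised at 3°C/min and fluorescence-monitored unfolding yields the melting temperature change, ΔTm in degrees Celsius.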

[2] = biological target: T2, ~100 representative kinases (Homo sapiens, UniProt Q99986); conditions: Protein VRK1; DSF; average of three replicates
T2 construct: Recombinant protein kinase domains with a concentration of 2 μM
T2 sequence (Q99986 1-396): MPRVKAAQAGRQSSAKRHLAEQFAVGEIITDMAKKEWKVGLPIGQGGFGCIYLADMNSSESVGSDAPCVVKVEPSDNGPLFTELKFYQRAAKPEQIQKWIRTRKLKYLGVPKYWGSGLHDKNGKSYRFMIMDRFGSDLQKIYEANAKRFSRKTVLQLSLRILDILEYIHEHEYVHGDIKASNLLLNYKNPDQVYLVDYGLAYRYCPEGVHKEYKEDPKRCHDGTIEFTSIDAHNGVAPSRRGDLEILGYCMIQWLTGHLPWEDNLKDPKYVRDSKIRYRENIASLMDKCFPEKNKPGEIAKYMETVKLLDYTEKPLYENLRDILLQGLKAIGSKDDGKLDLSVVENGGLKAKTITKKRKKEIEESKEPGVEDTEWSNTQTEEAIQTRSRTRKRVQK
Outline: as §1

[3] = biological target: T3, ~100 representative kinases (Homo sapiens, UniProt Q9UEE5); conditions: Protein STK17A; DSF; average of three replicates
T3 construct: Recombinant protein kinase domains with a concentration of 2 μM
T3 sequence (Q9UEE5 1-414): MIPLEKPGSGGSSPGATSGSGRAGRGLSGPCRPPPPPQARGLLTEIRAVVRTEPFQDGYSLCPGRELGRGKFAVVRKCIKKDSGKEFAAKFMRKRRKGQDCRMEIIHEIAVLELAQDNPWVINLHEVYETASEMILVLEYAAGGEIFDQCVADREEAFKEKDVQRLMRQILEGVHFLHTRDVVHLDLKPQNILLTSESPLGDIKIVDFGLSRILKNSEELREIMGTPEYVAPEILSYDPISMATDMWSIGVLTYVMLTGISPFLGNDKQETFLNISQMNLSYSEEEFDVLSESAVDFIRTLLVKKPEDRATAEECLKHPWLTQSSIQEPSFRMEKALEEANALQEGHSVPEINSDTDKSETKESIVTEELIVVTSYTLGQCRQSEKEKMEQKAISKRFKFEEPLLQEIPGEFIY
Outline: as §1

[4] = biological target: T4, ~100 representative kinases (Homo sapiens, UniProt Q13188); conditions: Protein STK3; DSF; average of three replicates
T4 construct: Recombinant protein kinase domains with a concentration of 2 μM
T4 sequence (Q13188 1-491): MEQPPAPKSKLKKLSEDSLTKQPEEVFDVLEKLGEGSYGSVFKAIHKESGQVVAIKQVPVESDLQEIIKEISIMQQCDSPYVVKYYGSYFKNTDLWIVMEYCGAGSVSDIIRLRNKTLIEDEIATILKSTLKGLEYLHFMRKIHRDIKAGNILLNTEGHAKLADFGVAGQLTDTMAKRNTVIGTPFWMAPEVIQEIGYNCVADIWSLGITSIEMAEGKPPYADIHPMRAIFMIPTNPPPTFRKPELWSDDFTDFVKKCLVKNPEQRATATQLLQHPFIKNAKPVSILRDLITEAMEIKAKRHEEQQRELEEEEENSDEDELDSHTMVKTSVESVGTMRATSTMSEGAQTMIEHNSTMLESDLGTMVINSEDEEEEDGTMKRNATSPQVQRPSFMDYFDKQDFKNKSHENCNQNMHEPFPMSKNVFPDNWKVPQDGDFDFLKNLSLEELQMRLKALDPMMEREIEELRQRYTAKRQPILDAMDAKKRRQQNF
Outline: as §1

[5] = biological target: T5, ~100 representative kinases (Homo sapiens, UniProt P27448); conditions: protein MARK3; average of three replicates
T5 construct: Recombinant protein kinase domains with a concentration of 2 μM
Outline: as §1

T5 sequence (P27448 whole entry, the tested form may be a part): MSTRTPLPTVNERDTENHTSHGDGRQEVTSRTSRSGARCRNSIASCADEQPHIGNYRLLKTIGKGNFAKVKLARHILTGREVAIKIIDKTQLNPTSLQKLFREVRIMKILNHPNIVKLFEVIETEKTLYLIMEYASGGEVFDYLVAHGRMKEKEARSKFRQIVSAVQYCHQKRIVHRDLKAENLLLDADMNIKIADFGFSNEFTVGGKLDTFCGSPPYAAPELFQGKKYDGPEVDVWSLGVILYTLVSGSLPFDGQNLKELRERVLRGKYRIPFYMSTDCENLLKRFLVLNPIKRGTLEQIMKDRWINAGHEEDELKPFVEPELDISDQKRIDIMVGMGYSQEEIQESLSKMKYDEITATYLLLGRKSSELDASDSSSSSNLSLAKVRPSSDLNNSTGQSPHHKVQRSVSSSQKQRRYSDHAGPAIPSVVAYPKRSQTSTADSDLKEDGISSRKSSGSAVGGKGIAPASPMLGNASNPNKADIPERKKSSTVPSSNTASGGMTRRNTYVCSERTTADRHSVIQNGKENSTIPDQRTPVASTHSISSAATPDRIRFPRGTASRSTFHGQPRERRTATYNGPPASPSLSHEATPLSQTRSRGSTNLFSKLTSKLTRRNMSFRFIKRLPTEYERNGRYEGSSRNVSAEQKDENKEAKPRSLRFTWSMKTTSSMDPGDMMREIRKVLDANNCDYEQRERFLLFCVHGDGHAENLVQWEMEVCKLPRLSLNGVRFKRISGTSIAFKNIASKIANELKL

dTm [1] [K] | dTm [2] [K] | dTm [3] [K] | dTm [4] [K] | dTm [5] [K] | SMILES
0.36 | 1.12 | -0.28 | 8.42 | 6.20 | CCc1ccc(NC(=O)C2(C(=O)Nc3cccc(-c4c[nH]c5ncnc(N6CCOCC6)c45)c3)CC2)cc1 [Compound 15]
0.14 | -0.55 | 3.34 | 10.79 | 2.95 | Cc1ccc(-n2nc(C(C)(C)C)cc2NC(=O)Nc2cccc(-c3c[nH]c4ncnc(N5CCOCC5)c34)c2)cc1 [Compound 29]
0.19 | 1.14 | 0.99 | 7.68 | 5.81 | O=C(Nc1cccc(-c2c[nH]c3ncnc(N4CCOCC4)c23)c1)C1(C(=O)Nc2ccc(F)c(F)c2)CC1 [Compound 17]
0.09 | 0.93 | 0.20 | 8.44 | 6.63 | COc1cc(NC(=O)C2(C(=O)Nc3cccc(-c4c[nH]c5ncnc(N6CCOCC6)c45)c3)CC2)ccc1F [Compound 21]
1.03 | 1.24 | -0.61 | 4.96 | 3.00 | O=C(Nc1cccc(-c2c[nH]c3ncnc(N4CCOCC4)c23)c1)C1(C(=O)Nc2cc(Br)c(F)cc2F)CC1 [Compound 25]
1.15 | 1.05 | 1.21 | 2.54 | 3.05 | O=C(Nc1cc(F)cc(Br)c1)C1(C(=O)Nc2cccc(-c3c[nH]c4ncnc(N5CCOCC5)c34)c2)CC1 [Compound 27]
1.08 | 0.81 | -0.64 | 9.61 | 4.89 | CC(C)(C)c1cccc(NC(=O)C2(C(=O)Nc3cccc(-c4c[nH]c5ncnc(N6CCOCC6)c45)c3)CC2)c1 [Compound 22]

Second part, the compound before the results:

SMILES | dTm [1] [K] | dTm [2] [K] | dTm [3] [K] | dTm [4] [K] | dTm [5] [K]
C[C@@H]1CN(c2cc(-c3n[nH]c4ccc(OC5(C)CC5)cc34)ncn2)C[C@H](C)O1 [MLi2] | 0.19 | 0.11 | -0.26 | 0.09 | -1.07
Cc1ccc(C(=O)Nc2ccc(CN3CCN(C)CC3)c(C(F)(F)F)c2)cc1C#Cc1c[nH]c2ncnc(N3CCOCC3)c12 [Compound 1] | 1.18 | -0.0464 | 2.74 | 10.52 | 1.49
CNC(=O)c1cc(Oc2ccc(NC(=O)Nc3cc(C(C)(C)C)nn3-c3ccc4ncccc4c3)c(F)c2)ccn1 [Rebastinib, reference compound] | -12.03 | 0.52 | 3.53 | 9.02 | 0.56
O=C(Nc1cccc(-c2c[nH]c3ncnc(N4CCOCC4)c23)c1)c1cccn(-c2ccc(F)cc2)c1=O [Compound 4] | -0.18 | 1.12 | -0.07 | 9.51 | 4.45
CCSc1nc(NC)c2c(-c3cccc(NC(=O)Nc4cc(C(C)(C)C)nn4-c4ccc(C)cc4)c3)c[nH]c2n1 [Compound 32] | -0.26 | -0.68 | -0.0646 | 0.53 | 0.16
